Test results from PubChem BioAssay AID489033 (Sanford-Burnham Center for Chemical Genomics, 2010).
Calls of active or inactive are those of the source. The rule behind the calls is not given here.

System: 697B B-cell line, NF-kB luciferase reporter luminescence
Assay: NF-kB reporter inhibition in B cells, dose response, selectivity assay for T-cell antigen receptor NF-kB inhibitors, 697B cells, luminescence (AID 489033)

Row | SMILES | IC50
1 | O=c1cc(-c2ccccc2)[nH]c2ccccc12 | > 80 µM (inactive)
2 | COC(=O)c1[nH]c2ccc(Br)cc2c1NC(=O)CN1CCN(C2CCCCC2)CC1 | 8.88 µM
3 | C#Cc1ccc([C@@H]2C=C(C(=O)N3CCN(Cc4ccccc4)CC3)O[C@H](OCCCCO)C2)cc1 | > 80 µM (inactive)
4 | COC(=O)c1cnc(Oc2ccc(NC(=O)NC(=O)c3c(F)cccc3Cl)cc2)cc1C(F)(F)F | > 80 µM (inactive)
5 | O=C(Nc1ccc(Oc2cccnc2)nc1)c1ccc(C(F)(F)F)cc1 | 0.25 µM
6 | COc1ccccc1-c1nnc2sc(-c3ccc(N(C)C)cc3)nn12 | > 80 µM (inactive)
7 | CCc1ccc(/C=N/NC(=O)c2cc(C3CC3)nc3ccccc23)s1 | 23.3 µM (inactive)
8 | COc1ccc(COC(=O)c2cc([N+](=O)[O-])ccc2N2CCOCC2)cc1F | 37.1 µM (inactive)
9 | COc1cc(NC(=O)N2CCNC2=O)cc(C(=O)Nc2cccc(C(F)(F)F)c2)c1 | < 0.16 µM
10 | Nc1ncn([C@@H]2O[C@H](CO)[C@@H](O)[C@H]2O)c(=O)n1 | 11.9 µM
11 | Cc1c(C(=O)N2CCOCC2)[nH]c2c1C(=O)CC(c1ccccc1Cl)C2 (stereo unspecified) | > 80 µM (inactive)
12 | COc1ccc(C(=O)N(C)Cc2cnn(Cc3ccccc3)c2)cc1S(=O)(=O)N1CCOCC1 | > 80 µM (inactive)
13 | O=C1CC(c2cc(F)ccc2F)c2cc3c(cc2N1)CCC3 (stereo unspecified) | > 80 µM (inactive)
14 | CCOC(=O)c1[nH]c(C)c(C(=O)OCC(=O)NC(C)c2ccc(F)cc2)c1C (stereo unspecified) | > 80 µM (inactive)
15 | Cc1cc(NC(=O)CSc2nc3c(sc4ccccc43)c(=O)n2CCCN2CCOCC2)n[nH]1 | > 80 µM (inactive)
16 | CCN(c1ccccc1)S(=O)(=O)c1ccc(C(=O)NC2CCN(Cc3ccccc3)CC2)cc1 | > 80 µM (inactive)
17 | O=C(N/N=C\c1c(O)ccc2ccccc12)c1cncc(Br)c1 | > 80 µM (inactive)
18 | Cc1oc2c(c1C(=O)NCc1cccnc1)C(=O)c1ccccc1C2=O | 4.69 µM
19 | COc1cccc(-c2cc(=O)c3cc(NC(=O)c4ccccc4)ccc3[nH]2)c1 | > 80 µM (inactive)
20 | CCn1c(C)cc(C(=O)CN2C(=O)c3ccccc3S2(=O)=O)c1C | 0.74 µM
21 | CCOC(=O)c1[nH]c(C)c(C(=O)Nc2ccc(C)cc2C)c1C | 42.3 µM (inactive)
22 | Clc1cccc(Cl)c1OCCOCCNCc1ccccc1 | > 80 µM (inactive)
23 | CC(C)(C)c1nnc(N/N=C/c2ccccc2O)n(N)c1=O | 52.8 µM (inactive)
24 | CC[C@]1(O)CC2CN(CCc3c([nH]c4ccccc34)[C@@](C(=O)OC)(c3cc4c(cc3OC)N(C=O)[C@H]3[C@@](O)(C(=O)OC)[C@H](OC(C)=O)[C@]5(CC)C=CCN6CC[C@]43[C@@H]65)C2)C1 (stereo partly specified) | > 80 µM (inactive)

Row | SMILES | IC50
25 | Cc1cc(-c2ccc(C)c(S(=O)(=O)N3CCN(c4ccc([N+](=O)[O-])cc4)CC3)c2)on1 | > 80 µM (inactive)
26 | Cc1ccc2[nH]c3c(c2c1)CCCC3NC(=O)CCl (stereo unspecified) | 1.67 µM
27 | COc1cc(C2c3cc4c(cc3C(OC3OC5COC(c6cccs6)OC5C(O)C3O)C3COC(=O)C23)OCO4)cc(OC)c1O (stereo unspecified) | 3.94 µM
28 | CCCCS(=O)(=O)/C=C\C=C/S(=O)(=O)CCCC | 3.51 µM
29 | CCOC(=O)c1[nH]c2c(c1C)C(=O)CC(c1ccc(F)cc1)C2 (stereo unspecified) | > 80 µM (inactive)
30 | Cc1ccccc1NS(=O)(=O)c1ccc(N2CCCC2=O)cc1 | > 80 µM (inactive)
31 | CCCN(CCC)C1=CC(=[N+]2CCCC2)CC(C)(C)C1 | 22.6 µM (inactive)
32 | COC(=O)C1CN(C#N)N(c2ccc(Cl)cc2)C12c1ccccc1-c1ccccc12 (stereo unspecified) | 3.58 µM
33 | O=C(O)c1ccc(N/N=C/c2ccc3c(c2)OCO3)cc1 | 1.04 µM
34 | Cn1cc(C(=O)N/N=C/c2c(O)ccc3ccccc23)ccc1=O | > 80 µM (inactive)
35 | O=C(N/N=C/c1c(O)ccc2ccccc12)c1ccc(Br)o1 | > 80 µM (inactive)
36 | CC1=C(C(=O)OCc2ccc3c(c2)OCO3)C(c2ccc(Cl)cc2)NC(=O)N1 (stereo unspecified) | 0.46 µM
37 | CCn1ncc(C2=NOC(C(=O)NCc3ccccc3)C2)c1C (stereo unspecified) | > 80 µM (inactive)
38 | COc1ccc(C(NC(=O)C(C)C)c2ccc3cccnc3c2O)cc1 (stereo unspecified) | > 80 µM (inactive)
39 | Cc1ccc(C(=O)Nc2cnc3ccccc3c2)cc1 | 7.31 µM
40 | CC(=O)Nc1ccc(S(=O)(=O)N2c3ccccc3C(C)=CC2(C)C)cc1 | > 80 µM (inactive)
41 | Cc1cccc(N=Nc2ccc(O)c3ncccc23)c1 | 1.1 µM
42 | C/C(=N\NC(=O)c1cc(C)nc2ccccc12)c1ccccn1 | 1.23 µM
43 | COc1ccc(NC(=O)/C(Cl)=C(/Cl)S(=O)Cc2ccccc2Cl)cn1 (stereo unspecified) | 1.27 µM
44 | Cc1ccc(Oc2ccc(OCC(=O)Nc3ccncc3)cc2)cc1 | 58.6 µM (inactive)
45 | Cc1ccc(NC(=O)CSc2nc(-c3ccco3)cc(C(F)(F)F)n2)cc1C | > 80 µM (inactive)
46 | CCCCCCCCCCCCCCCC[n+]1ccc(C(N)=O)cc1 | 8.82 µM
47 | CCOc1ccc2c(c1)OC(c1ccc(OC)cc1)(C(F)(F)F)NC2=O (stereo unspecified) | > 80 µM (inactive)
48 | CCN1/C(=C/c2ccc3cc(C)ccc3[n+]2CC)Sc2ccc3sccc3c21 | 9.39 µM

Row | SMILES | IC50
49 | CCCC(=O)NC(c1ccc(OC)cc1)c1ccc2cccnc2c1O (stereo unspecified) | > 80 µM (inactive)
50 | CCOC(=O)c1[nH]c(C)c(C(=O)c2cc(F)ccc2F)c1C | > 80 µM (inactive)
51 | O=[N+]([O-])c1nn(-c2ccc3c(c2)OCCO3)n(O)c1=Nc1ccccc1 | < 0.16 µM
52 | Cc1ccc(C(=O)N/N=C/c2ccc([N+](=O)[O-])s2)cc1 | 4.21 µM
53 | COc1cc(C2C(C#N)=C(N)Oc3cc4c(cc32)OCO4)cc(OC)c1OC (stereo unspecified) | > 80 µM (inactive)
54 | COc1ccc(NC(=O)Cn2nnc(-c3ccccc3NS(=O)(=O)c3ccc(OC)cc3)n2)cc1 | > 80 µM (inactive)
55 | CCOC(=O)N1CCN(C(=O)C2CCCN(Cc3nc(-c4ccc(Cl)cc4)oc3C)C2)CC1 (stereo unspecified) | 33.9 µM (inactive)
56 | Cc1ccc2c(c1)Oc1ccc(NC(=O)CCl)cc1C(=O)N2 | 0.72 µM
57 | COc1cc(C(=O)N2CCN(c3cc(Cl)ccc3Cl)CC2)cc(OC)c1OC | > 80 µM (inactive)
58 | COc1ccc(CNC(=O)c2c(C)oc3c2C(=O)c2ccccc2C3=O)cc1 | > 80 µM (inactive)
59 | COc1ccc([N+](=O)[O-])cc1Nc1c2ccccc2nc2ccccc12 | > 80 µM (inactive)
60 | CCCOC(=O)c1[nH]c2c(c1C)C(=O)CC(c1cccs1)C2 (stereo unspecified) | > 80 µM (inactive)
61 | CN(Cc1ccccc1)C1=CC(=[N+]2CCCC2)CC(C)(C)C1 | > 80 µM (inactive)
62 | Oc1ccc2ccccc2c1/C=N/Nc1nnc(-c2ncc[nH]2)c2ccccc12 | > 80 µM (inactive)
63 | Cc1ccc(-n2ncc3c(N4CCN(c5ccccc5)CC4)ncnc32)c(C)c1 | 5.39 µM
64 | CCCC(=O)NC(c1ccccc1Cl)c1ccc2cccnc2c1O (stereo unspecified) | > 80 µM (inactive)
65 | COc1ccccc1CNS(=O)(=O)c1ccc(-c2cc(C)no2)cc1 | > 80 µM (inactive)
66 | CCCN1C=CC(=C2C(=O)c3ccccc3C2=O)C=C1 | < 0.16 µM
67 | O=C(O)c1ccc(-c2ccc(-c3ccccc3)cc2)s1 | 2.46 µM
68 | COc1ccc(Nc2cc(C)nc(-n3nc(C)cc3C)n2)cc1 | > 80 µM (inactive)
69 | COC(=O)c1cn(NC(=O)c2cc([N+](=O)[O-])ccc2F)c(=O)c2ccccc12 | 2.43 µM
70 | CC(=O)NC(c1ccc2ccccc2c1)c1ccc2cccnc2c1O (stereo unspecified) | > 80 µM (inactive)
71 | CCN(CC)c1ccc2nc3ccccc3[n+](CC)c2c1 | 45.8 µM (inactive)
